Data taken from patent US7078499B2, “Nucleotide analogues comprising a reporter moiety and a polymerase enzyme blocking moiety” (GE Healthcare UK Limited, priority 2000, dated 2006).

What was measured:
Assay type in all cases: biochemical
[1] = biological target: T1, Taq DNA polymerase (Thermus aquaticus, UniProt P19821); assay: Thermostable DNA polymerase primer extension, Taq; parameters: key to result of incorporation (termination / further chain extension): T: Incorporation results in termination; E: Incorporation permits further chain extension; T/E: Predominant product is primer extended by one base, but evidence of some further extension also observed; details: DNA template, 45° C. for 20–40 minutes; for primer extended by at least one base within assay time (grade): TTP replaced entirely by test compound
T1 construct: purchased APBiotech
T1 sequence (P19821 whole entry): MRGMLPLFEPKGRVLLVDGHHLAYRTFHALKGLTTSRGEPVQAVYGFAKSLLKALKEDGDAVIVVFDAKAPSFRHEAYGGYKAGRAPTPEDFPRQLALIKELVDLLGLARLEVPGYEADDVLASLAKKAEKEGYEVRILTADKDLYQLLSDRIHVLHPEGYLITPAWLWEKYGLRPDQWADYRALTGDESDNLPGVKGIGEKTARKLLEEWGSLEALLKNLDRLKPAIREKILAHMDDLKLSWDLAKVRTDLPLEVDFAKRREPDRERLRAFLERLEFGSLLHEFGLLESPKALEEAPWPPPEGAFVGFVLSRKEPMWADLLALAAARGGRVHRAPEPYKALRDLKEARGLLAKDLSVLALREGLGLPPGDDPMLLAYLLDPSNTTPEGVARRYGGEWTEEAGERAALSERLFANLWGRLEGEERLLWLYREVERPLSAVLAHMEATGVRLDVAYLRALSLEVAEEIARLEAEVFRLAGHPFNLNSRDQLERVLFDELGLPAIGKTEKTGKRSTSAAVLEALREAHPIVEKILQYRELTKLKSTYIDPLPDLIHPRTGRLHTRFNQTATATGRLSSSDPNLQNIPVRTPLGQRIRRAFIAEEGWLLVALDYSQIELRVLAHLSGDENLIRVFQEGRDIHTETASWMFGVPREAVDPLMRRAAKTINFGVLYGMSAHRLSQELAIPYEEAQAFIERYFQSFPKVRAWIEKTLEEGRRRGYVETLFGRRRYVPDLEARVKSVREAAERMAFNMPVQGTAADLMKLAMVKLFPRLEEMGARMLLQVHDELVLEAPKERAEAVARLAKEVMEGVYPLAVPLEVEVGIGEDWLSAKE
Protocol: (§1) DNA polymerase assays were performed using Sequence 1 as primer and Sequence 2 as template. • Sequence 1 5′[Cy3]TAACTCATTAACAGGATC 3′ • Sequence 2 5′AT TCGCGGTATTCTGGTATGAAGCTTTTAGATCCTGTTAATGAGTTA GTA3′
(§2) The template (Sequence 2) was designed such that the base (underlined) immediately adjacent to the 3′ end of the hybridised primer is complementary to the nucleotide test compound. Nucleotide test compounds were compounds (6) (4′-C-(glycylaminomethyl)thymidine triphosphate), (8) (4′-C-(N-trifluoroacetyaminomethyl)thymidine triphosphate) and (9) (4′-C-(aminomethyl)thymidine triphosphate) as described above.
(§3) Primer extension reactions were performed using the above primers in the presence of 40 to 80 μM of nucleotide triphosphates. Positive control reactions contained all four native nucleotide triphosphates. For the other reactions the TTP was replaced with either a 2:1 ratio of […] for the terminator control, or entirely by the test compound The enzymes were used at a final concentration of 0.175 units/μl and a magnesium ion concentration of 2.5 mM in buffers supplied by the manufacturer. The primer and template concentrations were 0.5 pmol/μl and 2 pmol/μl respectively.
(§4) Extension reactions with thermophilic enzymes were performed by initially denaturing the fully assembled reactions at 70° C. for 5 min. followed by 45° C. for 20–40 minutes. The following enzymes were used: Taq DNA polymerase (Taq); Thermosequenase (TS); Thermosequenase II (TSII); Thermosequenase E (TSE), Tfl DNA polymerase (Tfl); Tth DNA polymerase (Tth), deltaTts DNA polymerase (deltaTts), deltaTts D DNA polymerase (dettaTTSD) (all from APBiotech); Pfu DNA polymerase (Pfu) (Stratagene Ltd); Vent™ DNA polymerase (Vent) (New England Biolabs).
(§5) The reactions were stopped by adding a 0.5 volume aliquot of 80% formamide containing 0.1% (w/v) bromophenol blue and 0.1% (w/v) cresol blue. The reaction products were separated by denaturing gel electrophoresis at a constant power of 45 W on 16% polyacrylamide gels containing 50% urea.
(§6) Gels were scanned for Cy3 fluorescence on a Molecular Dynamics Fluorimager and the data analysed using Molecular Dynamics ImageQuant 5 software.
(§7) The incorporation of a test nucleotide triphosphate results in the appearance on a polyacrylamide gel of a single band corresponding to a single base extension product. If, however, the enzyme adds additional bases then further bands would be observed that corresponded to either the full-length product or positions of other complementary bases in the template.

[2] = tested on: SAV RT; assay: Mesophilic reverse transcriptase reaction, SAV RT; parameters: key to result of incorporation (termination / further chain extension): T: Incorporation results in termination; E: Incorporation permits further chain extension; T/E: Predominant product is primer extended by one base, but evidence of some further extension also observed; details: RNA template, final enzyme concentration of 4 units/μl
Protocol: as §1, §2, §3
(§8) Extension reactions preformed with mesophilic polymerases were carried out by mixing all the components of the reaction except the enzyme and heating to 70° C. for 5 min. After the reactions had cooled to room temperature 0.175 units of the enzyme were added and the reactions heated to 37° C. for 20–40 minutes. The following enzymes were used: T7 DNA polymerase (T7); Sequenase 2™ (Seq); Klenow fragment of DNA polymerase 1 (Klen); phi-29 DNA polymerase (Phi-29); T4 DNA polymerase (T4) (all from AP Biotech) and Bst DNA polymerase (Bst) (Cambio Ltd).
(§9) Reverse transcriptase reactions were performed essentially as described above for thermophilic and mesophilic enzymes. The template for these reactions was the RNA equivalent of sequence 2. All the thermophilic enzymes were assayed in Tth reaction buffer (Cambio Ltd, Cambridge UK) containing 2.5 mM Manganese ions. The following enzymes were used: Thermosequenase (TS1); Thermosequenase II (TSII); delta Tts DNA polymerase (deltaTts); delta Tts D DNA polymerase (deltaTtsD) (all from APBiotech); Retrotherm reverse transcriptase (Retroth) (Cambio Ltd); Tth DNA polymerase (Tth) (Cambio Ltd.).
(§10) Mesophilic reverse transcriptases (AMV RT; MuLV RT; SAV RT and HIV RT all from APBiotech) were assayed in their respective buffers with a final enzyme concentration of 4 units/μl.
as §5, §6, §7

[3] = tested on: a range of polymerases; assay: DNA polymerase assays (summary); details: for further extension after incorporation: reverse transcriptase conditions; for result of incorporation / substrate for polymerases: summary of polymerase assays
Protocol: as §1, §2, §3, §4, §8, §9, §10, §5, §6, §7

[4] = biological target: T2, HIV RT (Human immunodeficiency virus type 1 group M subtype B, UniProt P03366); assay: Mesophilic reverse transcriptase reaction, HIV RT; parameters: key to result of incorporation (termination / further chain extension): T: Incorporation results in termination; E: Incorporation permits further chain extension; T/E: Predominant product is primer extended by one base, but evidence of some further extension also observed; key to primer extended by at least one base within assay time (grade): −: No extension within assay time; +/−: up to 25% of primer extended by at least one base within assay time; +: up to 50% of primer extended by at least one base within assay time; ++: up to 75% of primer extended by at least one base within assay time; +++: essentially all primer extended by at least one base within assay time; details: RNA template, final enzyme concentration of 4 units/μl
T2 construct: AMV RT; MuLV RT; SAV RT and HIV RT all from APBiotech; purchased APBiotech
Protocol: as §1, §2, §3, §8, §9, §10, §5, §6, §7

[5] = tested on: deltaTts DNA polymerase; assay: Thermostable DNA polymerase primer extension, delta Tts; parameters: key to result of incorporation (termination / further chain extension): T: Incorporation results in termination; E: Incorporation permits further chain extension; T/E: Predominant product is primer extended by one base, but evidence of some further extension also observed; details: DNA template, 45° C. for 20–40 minutes; for primer extended by at least one base within assay time (grade): TTP replaced entirely by test compound
Protocol: as §1, §2, §3, §4, §5, §6, §7

[6] = tested on: Thermosequenase; assay: Thermostable polymerase under reverse transcription conditions, TS I; parameters: key to result of incorporation (termination / further chain extension): T: Incorporation results in termination; E: Incorporation permits further chain extension; T/E: Predominant product is primer extended by one base, but evidence of some further extension also observed; details: RNA template, 2.5 mM Manganese ions; for primer extended by at least one base within assay time (grade): Tth reaction buffer
Protocol: as §1, §2, §3, §4, §9, §5, §6, §7

Row | Compound | result of incorporation (termination / further chain extension) [1] | primer extended by at least one base within assay time (grade) [1] | primer extended by at least one base within assay time (grade) [2] | result of incorporation (termination / further chain extension) [2] | further extension after incorporation [3] | result of incorporation [3] | substrate for polymerases [3] | primer extended by at least one base within assay time (grade) [4] | result of incorporation (termination / further chain extension) [4] | result of incorporation (termination / further chain extension) [5] | primer extended by at least one base within assay time (grade) [5] | result of incorporation (termination / further chain extension) [6] | primer extended by at least one base within assay time (grade) [6]
1 | 4′-C-(Aminomethyl)thymidine triphosphate [compound (9)] | T | +/− (up to 25% of primer extended by at least one base within assay time) | ++ (up to 75% of primer extended by at least one base within assay time) | E | some extension was observed | termination | effective substrates | +++ | E | T | +T | T/E | + (up to 50% of primer extended by at least one base within assay time)
2 | 4′-C-(Glycylaminomethyl)thymidine triphosphate [compound (6)] | T | +/− (up to 25% of primer extended by at least one base within assay time) | + (up to 50% of primer extended by at least one base within assay time) | E? | some extension was observed | termination | effective substrates | +++ | E | T | + (up to 50% of primer extended by at least one base within assay time) | T/E | + (up to 50% of primer extended by at least one base within assay time)
3 | Cc1cn([C@H]2C[C@H](O)[C@@](CNC(=O)C(F)(F)F)(COP(=O)(O)OP(=O)(O)OP(=O)(O)O)O2)c(=O)[nH]c1=O [compound (8), 4′-C-(N-trifluoroacetylaminomethyl)thymidine triphosphate] | T | +/− (up to 25% of primer extended by at least one base within assay time) | ++ (up to 75% of primer extended by at least one base within assay time) | E | some extension was observed | termination | effective substrates | +++ | E | T | + (up to 50% of primer extended by at least one base within assay time) | T/E | + (up to 50% of primer extended by at least one base within assay time)
